Results taken from US6737383B1, “Herbicidal oxadiazolidines” (priority 1999, dated 2004).

How the values were obtained:
[1] = system: purple nutsedge; assay: Test B pre/postemergence purple nutsedge; assay type: in vivo, Cyperus rotundus
Procedure, shortened: (§1)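 Test chemicals in a non-phytotoxic solvent mixture with surfactant were sprayed preemergence onto planted seeds and postemergence onto plants 2 to 18 cm tall (1- to 4-leaf stage). After twelve to sixteen days in a greenhouse, injury was visually rated against untreated controls from 0 (no effect) to 10 (complete control).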

[2] = system: crabgrass; assay: Test B pre/postemergence crabgrass; assay type: in vivo, Digitaria sanguinalis
Procedure, shortened: as §1

[3] = system: smallflower flatsedge; assay: Test B flood test smallflower flatsedge; assay type: in vivo, Cyperus difformis
Procedure, shortened: (§2)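 Flood test on plants grown to the 2-leaf stage; treated plants kept in greenhouse twelve to sixteen days, then visually rated against controls on a 0 (no effect) to 10 (complete control) scale.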

[4] = system: velvetleaf; assay: Test B pre/postemergence velvetleaf; assay type: in vivo, Abutilon theophrasti
Procedure, shortened: as §1

[5] = system: cocklebur; assay: Test B pre/postemergence cocklebur; assay type: in vivo, Xanthium strumarium
Procedure, shortened: as §1

[6] = system: surinam grass; assay: Test B pre/postemergence surinam grass; assay type: in vivo, Brachiaria decumbens
Procedure, shortened: as §1

[7] = system: giant foxtail; assay: Test B pre/postemergence giant foxtail; assay type: in vivo, Setaria faberii
Procedure, shortened: as §1

[8] = system: duck salad; assay: Test B flood test duck salad; assay type: in vivo, Heteranthera limosa
Procedure, shortened: as §2

[9] = system: blackgrass; assay: Test B pre/postemergence blackgrass; assay type: in vivo, Alopecurus myosuroides
Procedure, shortened: as §1

[10] = system: bamyardgrass; assay: Test B flood test barnyardgrass; assay type: in vivo, Echinochloa crus-galli
Procedure, shortened: as §2

[11] = system: soybean; assay: Test B pre/postemergence soybean; assay type: in vivo, Glycine max
Procedure, shortened: as §1

[12] = system: rice; assay: Test B flood test rice; assay type: in vivo, Oryza sativa
Procedure, shortened: as §2

[13] = system: wheat; assay: Test B pre/postemergence wheat; assay type: in vivo, Triticum aestivum
Procedure, shortened: as §1

[14] = system: corn; assay: Test B pre/postemergence corn; assay type: in vivo, Zea mays
Procedure, shortened: as §1

[15] = system: wild oat; assay: Test B pre/postemergence wild oat; assay type: in vivo, Avena fatua
Procedure, shortened: as §1

[16] = system: morningglory; assay: Test B pre/postemergence morningglory; assay type: in vivo, Ipomoea hederacea
Procedure, shortened: as §1

[17] = system: bedstraw; assay: Test B pre/postemergence bedstraw; assay type: in vivo, Galium aparine
Procedure, shortened: as §1

[18] = Preemergence, Rate 62 g/ha, scale of 0 to 10 where 0 is no effect and 10 is complete control
[19] = Preemergence, Rate 125 g/ha, 0 is no effect, 10 is complete control
[20] = Preemergence, Rate 250 g/ha, scale 0 to 10, 0 is no effect, 10 is complete control
[21] = Preemergence, Rate 500 g/ha, scale 0 to 10 (0 no effect, 10 complete control)
[22] = Rate 62 g/ha, Postemergence, scale of 0 to 10 where 0 is no effect and 10 is complete control
[23] = Rate 125 g/ha, Postemergence, scale 0 to 10
[24] = Rate 500 g/ha, Postemergence, scale 0 to 10
[25] = Rate 62 g/ha, headed Pre-emergence (flood test species), scale 0 to 10 (0 no effect, 10 complete control)
[26] = Rate 125 g/ha, Pre-emergence, flood test species, scale 0 to 10 where 0 is no effect and 10 is complete control
[27] = Rate 250 g/ha, Pre-emergence, flood-test species, scale 0 to 10, 0 is no effect, 10 is complete control
[28] = Rate 500 g/ha, headed Pre-emergence (flood test species), scale 0 to 10 (0 no effect, 10 complete control)

COc1nc(OC)nc(N(C(=O)n2oc(=O)n(C(C)C)c2=O)C(C)C)n1 [Compound 182]
0: Nutsedge plant response rating [1, 18] | Nutsedge plant response rating (0 to 10 scale) [1, 19] | Nutsedge plant response rating [1, 20] | Nutsedge plant response rating [1, 21] | Nutsedge plant response rating [1, 22] | Nutsedge plant response rating [1, 23] | Plant response rating (0 to 10; 0 is no effect, 10 is complete control), Nutsedge ([1]; Rate 250 g/ha, Postemergence) | Nutsedge plant response rating [1, 24] | Crabgrass plant response rating [2, 18] | Crabgrass plant response rating (0 to 10 scale) [2, 19] | Crabgrass plant response rating [2, 20] | Crabgrass plant response rating [2, 21] | Crabgrass plant response rating [2, 22] | Crabgrass plant response rating [2, 23] | Plant response rating (0 to 10; 0 is no effect, 10 is complete control), Crabgrass ([2]; Rate 250 g/ha, Postemergence) | Crabgrass plant response rating [2, 24] | S. Flatsedge plant response rating [3, 25] | S. Flatsedge plant response rating [3, 26] | S. Flatsedge plant response rating [3, 27] | S. Flatsedge plant response rating ([3]; Rate 500 g/ha, Pre-emergence, flood test species, scale 0 to 10 (0 no effect, 10 complete control)) | Velvetleaf plant response rating [4, 18] | Velvetleaf plant response rating [4, 20] | Velvetleaf plant response rating [4, 21] | Velvetleaf plant response rating [4, 23] | Plant response rating (0 to 10; 0 is no effect, 10 is complete control), Velvetleaf ([4]; Rate 250 g/ha, Postemergence) | Velvetleaf plant response rating [4, 24] | Cocklebur plant response rating [5, 18] | Cocklebur plant response rating (0 to 10 scale) [5, 19] | Cocklebur plant response rating [5, 20] | Cocklebur plant response rating [5, 21] | Cocklebur plant response rating [5, 22] | Cocklebur plant response rating [5, 23] | Plant response rating (0 to 10; 0 is no effect, 10 is complete control), Cocklebur ([5]; Rate 250 g/ha, Postemergence) | Cocklebur plant response rating [5, 24] | B. signalgrass plant response rating [6, 18] | B. signalgrass plant response rating (0 to 10 scale) [6, 19] | B. signalgrass plant response rating [6, 20] | B. signalgrass plant response rating [6, 21] | B. signalgrass plant response rating [6, 22] | B. signalgrass plant response rating ([6]; Rate 125 g/ha, Postemergence, scale 0 (no effect) to 10 (complete control)) | Plant response rating, B. signalgrass ([6]; Rate 250 g/ha, Postemergence, scale 0 to 10, 0 is no effect, 10 is complete control) | B. signalgrass plant response rating ([6]; Rate 500 g/ha, Postemergence, scale 0 to 10, 0 no effect, 10 complete control) | Giant foxtail plant response rating [7, 18] | Giant foxtail plant response rating (0 to 10 scale) [7, 19] | Giant foxtail plant response rating [7, 20] | Giant foxtail plant response rating [7, 21] | Giant foxtail plant response rating [7, 22] | Giant foxtail plant response rating [7, 23] | Plant response rating (0 to 10; 0 is no effect, 10 is complete control), Giant foxtail ([7]; Rate 250 g/ha, Postemergence) | Giant foxtail plant response rating [7, 24] | Ducksalad plant response rating [8, 25] | Ducksalad plant response rating [8, 26] | Ducksalad plant response rating [8, 27] | Plant response rating, Ducksalad [8, 28] | Blackgrass plant response rating [9, 18] | Blackgrass plant response rating (0 to 10 scale) [9, 19] | Blackgrass plant response rating [9, 20] | Blackgrass plant response rating [9, 21] | Blackgrass plant response rating [9, 22] | Blackgrass plant response rating [9, 23] | Plant response rating (0 to 10; 0 is no effect, 10 is complete control), Blackgrass ([9]; Rate 250 g/ha, Postemergence) | Blackgrass plant response rating [9, 24] | Barnyardgrass plant response rating [10, 25] | Barnyardgrass plant response rating [10, 26] | Barnyardgrass plant response rating [10, 27] | Plant response rating, Barnyardgrass [10, 28] | Soybean plant response rating [11, 18] | Soybean plant response rating (0 to 10 scale) [11, 19] | Soybean plant response rating [11, 20] | Soybean plant response rating [11, 21] | Soybean plant response rating [11, 22] | Soybean plant response rating [11, 23] | Plant response rating (0 to 10; 0 is no effect, 10 is complete control), Soybean ([11]; Rate 250 g/ha, Postemergence) | Soybean plant response rating [11, 24] | Rice plant response rating [12, 25] | Rice plant response rating [12, 26] | Rice plant response rating [12, 27] | Plant response rating, Rice [12, 28] | Wheat plant response rating [13, 18] | Wheat plant response rating [13, 20] | Wheat plant response rating [13, 21] | Wheat plant response rating [13, 23] | Plant response rating (0 to 10; 0 is no effect, 10 is complete control), Wheat ([13]; Rate 250 g/ha, Postemergence) | Wheat plant response rating [13, 24] | Corn plant response rating [14, 18] | Corn plant response rating (0 to 10 scale) [14, 19] | Corn plant response rating [14, 20] | Corn plant response rating [14, 21] | Corn plant response rating [14, 22] | Corn plant response rating [14, 23] | Plant response rating (0 to 10; 0 is no effect, 10 is complete control), Corn ([14]; Rate 250 g/ha, Postemergence) | Corn plant response rating [14, 24] | Wild oats plant response rating [15, 18] | Wild oats plant response rating [15, 20] | Wild oats plant response rating [15, 21] | Wild oats plant response rating [15, 23] | Plant response rating (0 to 10; 0 is no effect, 10 is complete control), Wild oats ([15]; Rate 250 g/ha, Postemergence) | Wild oats plant response rating [15, 24] | Morningglory plant response rating [16, 18] | Morningglory plant response rating (0 to 10 scale) [16, 19] | Morningglory plant response rating [16, 20] | Morningglory plant response rating [16, 21] | Morningglory plant response rating [16, 22] | Morningglory plant response rating [16, 23] | Plant response rating (0 to 10; 0 is no effect, 10 is complete control), Morningglory ([16]; Rate 250 g/ha, Postemergence) | Morningglory plant response rating [16, 24] | Bedstraw plant response rating [17, 18] | Bedstraw plant response rating (0 to 10 scale) [17, 19] | Bedstraw plant response rating [17, 20] | Bedstraw plant response rating [17, 21] | Bedstraw plant response rating [17, 22] | Bedstraw plant response rating [17, 23] | Plant response rating (0 to 10; 0 is no effect, 10 is complete control), Bedstraw ([17]; Rate 250 g/ha, Postemergence) | Bedstraw plant response rating [17, 24]
